Measurements published in ChEMBL document CHEMBL1949653, “Novel heterocyclic DPP-4 inhibitors for the treatment of type 2 diabetes” (Bioorg Med Chem Lett, 2012).

What was measured:
[1] = target: Cytochrome P450 3A4 (Homo sapiens, UniProt P08684); test: Inhibition of CYP3A4; assay type: ADME
[2] = target: Voltage-gated inwardly rectifying potassium channel KCNH2 (Homo sapiens, UniProt Q12809); test: Inhibition of human ERG by dofetilide binding assay
[3] = target: T1, Muscarinic acetylcholine receptor M1 (Homo sapiens, UniProt P11229); test: Inhibition of M1 receptor
T1 sequence (P11229 whole entry): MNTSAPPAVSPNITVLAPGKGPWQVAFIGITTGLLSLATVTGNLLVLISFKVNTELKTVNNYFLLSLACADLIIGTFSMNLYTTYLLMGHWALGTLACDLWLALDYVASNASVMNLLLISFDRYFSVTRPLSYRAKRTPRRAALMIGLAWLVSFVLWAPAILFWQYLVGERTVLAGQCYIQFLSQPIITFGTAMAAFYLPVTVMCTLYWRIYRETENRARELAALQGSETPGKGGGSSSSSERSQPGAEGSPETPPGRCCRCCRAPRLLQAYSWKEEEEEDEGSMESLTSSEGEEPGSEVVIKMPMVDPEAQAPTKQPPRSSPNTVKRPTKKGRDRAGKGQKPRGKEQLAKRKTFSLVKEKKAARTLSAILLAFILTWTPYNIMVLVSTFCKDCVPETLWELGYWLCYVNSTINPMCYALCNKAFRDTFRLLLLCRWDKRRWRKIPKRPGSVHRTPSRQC

[4] = Permeability from apical side to basal side of human Caco2 cells; conditions: Caco-2
[5] = Intrinsic clearance in rat liver microsome; assay type: ADME; conditions: liver microsomes, read-out: CLH
[6] = Inhibition of Cytochrome P450; assay type: ADME
[7] = Cmax in rat; assay type: ADME, organism-based; conditions: in vivo
[8] = AUC in rat; assay type: ADME, organism-based; conditions: plasma
[9] = Clearance in rat at 1 mg/kg, iv; assay type: ADME, organism-based; set-up: dose 1 mg/kg, route intravenous; conditions: in vivo
[10] = Oral bioavailability in rat; assay type: ADME, organism-based; conditions: in vivo
[11] = tested on: Rattus norvegicus; test: Ex-vivo inhibition of DPP4 in Wistar rat at 3 mg/kg, po up to 8 hrs post-administration; assay type: functional
[12] = species: Rattus norvegicus; test: animal or person; conditions: po, 5 h, read-out: INH

Chain of Voltage-gated inwardly rectifying potassium channel KCNH2 (Q12809 whole entry): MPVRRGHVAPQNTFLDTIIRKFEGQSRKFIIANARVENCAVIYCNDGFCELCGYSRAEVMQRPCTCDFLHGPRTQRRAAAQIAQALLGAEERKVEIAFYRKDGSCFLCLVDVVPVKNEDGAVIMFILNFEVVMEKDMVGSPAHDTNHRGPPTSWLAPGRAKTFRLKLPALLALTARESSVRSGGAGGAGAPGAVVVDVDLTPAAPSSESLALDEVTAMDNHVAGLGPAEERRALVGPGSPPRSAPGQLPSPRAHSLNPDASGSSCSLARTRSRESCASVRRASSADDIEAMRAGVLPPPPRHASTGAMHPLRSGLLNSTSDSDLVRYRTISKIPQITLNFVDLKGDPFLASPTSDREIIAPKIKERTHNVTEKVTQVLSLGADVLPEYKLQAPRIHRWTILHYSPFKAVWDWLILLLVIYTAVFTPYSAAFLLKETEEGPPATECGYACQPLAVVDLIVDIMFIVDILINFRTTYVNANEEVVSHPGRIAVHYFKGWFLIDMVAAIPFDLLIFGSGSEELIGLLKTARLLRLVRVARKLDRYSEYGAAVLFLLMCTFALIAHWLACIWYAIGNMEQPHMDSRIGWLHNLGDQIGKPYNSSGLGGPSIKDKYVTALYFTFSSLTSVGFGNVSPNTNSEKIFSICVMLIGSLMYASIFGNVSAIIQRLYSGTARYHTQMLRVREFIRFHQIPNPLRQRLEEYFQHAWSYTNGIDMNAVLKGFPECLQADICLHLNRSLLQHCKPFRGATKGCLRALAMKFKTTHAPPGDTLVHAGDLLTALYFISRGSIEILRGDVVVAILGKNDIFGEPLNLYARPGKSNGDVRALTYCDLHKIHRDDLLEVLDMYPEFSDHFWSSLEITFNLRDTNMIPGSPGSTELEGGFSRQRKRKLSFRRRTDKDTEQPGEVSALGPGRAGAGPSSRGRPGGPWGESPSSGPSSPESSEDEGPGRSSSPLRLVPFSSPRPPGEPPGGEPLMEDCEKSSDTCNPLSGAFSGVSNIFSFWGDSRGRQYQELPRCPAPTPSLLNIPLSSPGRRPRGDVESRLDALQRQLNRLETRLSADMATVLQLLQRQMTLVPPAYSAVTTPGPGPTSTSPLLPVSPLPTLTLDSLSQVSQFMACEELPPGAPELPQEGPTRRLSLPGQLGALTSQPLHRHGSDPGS
Chain of Cytochrome P450 3A4 (P08684 whole entry): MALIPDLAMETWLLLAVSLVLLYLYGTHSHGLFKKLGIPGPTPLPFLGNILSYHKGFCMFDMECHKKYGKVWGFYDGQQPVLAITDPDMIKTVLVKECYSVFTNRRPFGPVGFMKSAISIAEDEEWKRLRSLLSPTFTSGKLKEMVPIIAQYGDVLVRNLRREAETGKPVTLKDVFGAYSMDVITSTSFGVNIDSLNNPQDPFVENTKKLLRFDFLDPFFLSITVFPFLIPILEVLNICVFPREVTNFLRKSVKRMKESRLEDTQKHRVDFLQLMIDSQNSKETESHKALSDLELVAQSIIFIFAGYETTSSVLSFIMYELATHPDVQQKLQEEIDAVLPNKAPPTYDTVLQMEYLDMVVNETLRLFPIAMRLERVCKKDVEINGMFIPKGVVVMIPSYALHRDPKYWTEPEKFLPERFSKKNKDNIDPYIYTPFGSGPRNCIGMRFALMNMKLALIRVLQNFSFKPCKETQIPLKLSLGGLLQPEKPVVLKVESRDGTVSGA

Row | SMILES | IC50 [3] [µM] | also measured
1 | COc1cccc(C(=O)Cn2c(=O)c3c(c(C#N)c(N4CCC[C@H](N)C4)n3CC=C(C)C)n(C)c2=O)c1 | > 10 | IC50 [1]: ≤ 3 µM; IC50 [2]: 1.6 µM
2 | CC(C)=CCn1c(N2CCCNCC2)c(C#N)c2c1c(=O)n(Cc1cn3ccccc3n1)c(=O)n2C | > 10 | IC50 [1]: ≤ 3 µM
3 | CC#CCn1c(N2CCCNCC2)c(C#N)c2ncn(Cc3ncc4ccccc4n3)c(=O)c21 | > 10 | Papp A→B [4]: 0.6 ×10⁻⁶ cm/s
4 | CC(C)=CCn1c(N2CCC[C@H](N)C2)c(C#N)c2c1c(=O)n(Cc1cnc3ccccc3n1)c(=O)n2C | > 10 | IC50 [1]: ≤ 3 µM
5 | COc1cccc(C(=O)Cn2cnc3c(C#N)c(N4CCC[C@@H](N)C4)n(Cc4ccccc4)c3c2=O)c1 | > 10 | –
6 | COc1cccc(C(=O)Cn2cnc3c(C#N)c(N4CCC[C@@H](N)C4)n(CC=C(C)C)c3c2=O)c1 | > 10 | –
7 | CC(C)=CCn1c(N2CCCNCC2)c(C#N)c2ncn(Cc3nccc4ccccc34)c(=O)c21 | > 10 | –
8 | CC(C)=CCn1c(N2CCC[C@H](N)C2)c(C#N)c2ncn(Cc3ncc4ccccc4n3)c(=O)c21 | > 10 | CLint scaled [5]: 67 mL/min/kg
9 | CC#CCn1c(N2CCC[C@H](N)C2)c(C#N)c2ncn(CC(=O)c3cccc(OC)c3)c(=O)c21 | > 10 | –
10 | CC#CCn1c(N2CCC[C@@H](N)C2)c(C#N)c2ncn(CC(=O)c3cccc(OC)c3)c(=O)c21 | > 10 | –
11 | CC#CCn1c(N2CCC[C@H](N)C2)c(C#N)c2ncn(Cc3ccnc4ccccc34)c(=O)c21 | > 10 | –
12 | COc1cccc(C(=O)Cn2c(=O)c3c(c(C#N)c(N4CCC[C@H](N)C4)n3Cc3ccccc3)n(C)c2=O)c1 | > 10 | –
13 | CC(C)=CCn1c(N2CCCNCC2)c(C#N)c2c1c(=O)n(Cc1nccc3ccccc13)c(=O)n2C | > 10 | –
14 | CC#CCn1c(N2CCNCC2)c(C#N)c2ncn(CC(=O)c3cccc(OC)c3)c(=O)c21 | > 10 | –
15 | CC(C)=CCn1c(N2CCC[C@H](N)C2)c(C#N)c2c1c(=O)n(Cc1nc(C)c3ccccc3n1)c(=O)n2C | > 10 | IC50 [1]: ≤ 3 µM; IC50 [2]: 6.7 µM
16 | CC(C)=CCn1c(N2CCC[C@H](N)C2)c(C#N)c2c1c(=O)n(Cc1ncccc1C#N)c(=O)n2C | > 10 | IC50 [1]: ≤ 3 µM; IC50 [2]: 16.9 µM
17 | CC(C)=CCn1c(N2CCCNCC2)c(C#N)c2c1c(=O)n(Cc1c(C#N)cnc3ccccc13)c(=O)n2C | > 10 | IC50 [1]: ≤ 3 µM; IC50 [2]: 0.9 µM
18 | N#Cc1c(N2CCC[C@H](N)C2)n(Cc2ccccc2)c2c(=O)n(Cc3ccnc4ccccc34)cnc12 | > 10 | –
19 | CC#CCn1c(N2CCCNCC2)c(C#N)c2ncn(Cc3nccc4ccccc34)c(=O)c21 | > 10 | –
20 | CC(C)=CCn1c(N2CCC[C@H](N)C2)c(C#N)c2c1c(=O)n(Cc1nccc3ccccc13)c(=O)n2C | > 10 | –
21 | CC#CCn1c(N2CCCNCC2)c(C#N)c2c1c(=O)n(Cc1c(C#N)cnc3ccccc13)c(=O)n2C | > 10 | IC50 [1]: ≥ 10 µM; IC50 [6]: > 10 µM
22 | COc1cccc(C(=O)Cn2cnc3c(C#N)c(N4CCNCC4)n(CC=C(C)C)c3c2=O)c1 | > 10 | –
23 | CC#CCn1c(N2CCC[C@H](N)C2)c(C#N)c2ncn(Cc3nccc4ccccc34)c(=O)c21 | > 10 | –
24 | CC#CCn1c(N2CCC[C@H](N)C2)c(C#N)c2c1c(=O)n(CC(=O)c1cccc(OC)c1)c(=O)n2C | > 10 | –

Row | SMILES | IC50 [3] [µM] | also measured
25 | CC(C)=CCn1c(N2CCC[C@H](N)C2)c(C#N)c2ncn(Cc3ccnc4ccccc34)c(=O)c21 | > 10 | –
26 | CC(C)=CCn1c(N2CCCNCC2)c(C#N)c2c1c(=O)n(Cc1ncc3ccccc3c1C#N)c(=O)n2C | > 10 | IC50 [1]: ≤ 3 µM; IC50 [2]: 1.8 µM
27 | Cn1c(=O)c2c(c(C#N)c(N3CCC[C@H](N)C3)n2Cc2ccccc2)n(C)c1=O | > 10 | –
28 | CC#CCn1c(N2CCCNCC2)c(C#N)c2c1c(=O)n(Cc1ncc3ccccc3c1C#N)c(=O)n2C | > 10 | IC50 [2]: 12 µM
29 | CC(C)=CCn1c(N2CCC[C@H](N)C2)c(C#N)c2ncn(Cc3nc(C)c4ccccc4n3)c(=O)c21 | > 10 | –
30 | CC(C)=CCn1c(N2CCCNCC2)c(C#N)c2c1c(=O)n(Cc1nc(C)c3ccccc3n1)c(=O)n2C | > 10 | IC50 [1]: ≤ 3 µM
31 | CC#CCn1c(N2CCC[C@@H](N)C2)c(C#N)c2c1c(=O)n(Cc1nc(C)c3ccccc3n1)c(=O)n2C | > 10 | IC50 [2]: 21.7 µM
32 | CC#CCn1c(N2CCC[C@@H](N)C2)nc2c1c(=O)n(Cc1nc(C)c3ccccc3n1)c(=O)n2C [LINAGLIPTIN] | – | Papp A→B [4]: 0.8 ×10⁻⁶ cm/s; Cmax [7]: 21 nM; AUC [8]: 0.185 µM·h; clearance [9]: 34 mL/min/kg; bioavailability [10]: 9%
33 | CC#CCn1c(N2CCCNCC2)c(C#N)c2c1c(=O)n(Cc1nccc3ccccc13)c(=O)n2C | > 10 | inhibition in vivo at 3 mg/kg [11]: ≥ 70%
34 | CC#CCn1c(N2CCCNCC2)c(C#N)c2ncn(Cc3nc(C)c4ccccc4n3)c(=O)c21 | > 10 | Papp A→B [4]: 1.7 ×10⁻⁶ cm/s
35 | CC#CCn1c(N2CCC[C@H](N)C2)c(C#N)c2c1c(=O)n(Cc1nccc3ccccc13)c(=O)n2C | > 10 | IC50 [2]: 28.2 µM
36 | N#Cc1c(N2CCCNCC2)n(Cc2ccccc2)c2c(=O)n(Cc3nccc4ccccc34)cnc12 | > 10 | –
37 | Cn1cnc2c(C#N)c(N3CCC[C@H](N)C3)n(Cc3ccccc3)c2c1=O | > 10 | –
38 | Cn1c(=O)n(Cc2nccc3ccccc23)c(=O)c2c1c(C#N)c(N1CCC[C@H](N)C1)n2Cc1ccccc1 | > 10 | IC50 [1]: ≤ 3 µM; IC50 [2]: 2.8 µM
39 | CC#CCn1c(N2CCC[C@H](N)C2)c(C#N)c2c1c(=O)n(Cc1nc(C)c3ccccc3n1)c(=O)n2C | > 10 | IC50 [2]: > 30 µM
40 | CC(C)=CCn1c(N2CCC[C@H](N)C2)c(C#N)c2ncn(C)c(=O)c21 | > 10 | –
41 | CC(C)=CCn1c(N2CCC[C@H](N)C2)c(C#N)c2ncn(Cc3nccc4ccccc34)c(=O)c21 | > 10 | inhibition in vivo at 3 mg/kg [12]: 60%
42 | COc1cccc(C(=O)Cn2cnc3c(C#N)c(N4CCNCC4)n(Cc4ccccc4)c3c2=O)c1 | > 10 | –
43 | COc1cccc(C(=O)Cn2cnc3c(C#N)c(N4CCC[C@H](N)C4)n(Cc4ccccc4)c3c2=O)c1 | > 10 | –
44 | CC#CCn1c(N2CCCNCC2)c(C#N)c2c1c(=O)n(Cc1nc(C)c3ccccc3n1)c(=O)n2C | > 10 | –
45 | COc1cccc(C(=O)Cn2c(=O)c3c(c(C#N)c(N4CCCNCC4)n3CC=C(C)C)n(C)c2=O)c1 | > 10 | IC50 [1]: ≤ 3 µM; IC50 [2]: 1.1 µM
46 | Cn1cnc2c(C#N)c(N3CCNCC3)n(Cc3ccccc3)c2c1=O | > 10 | –
47 | COc1cccc(C(=O)Cn2cnc3c(C#N)c(N4CCC[C@H](N)C4)n(CC=C(C)C)c3c2=O)c1 | > 10 | –
